Data reported in ChEMBL document CHEMBL3885861, “Open TG-GATES”.

Species: Rattus norvegicus
Assay: Open TG-GATES - Regimen: Daily Repeat
Type: toxicity, organism-based, Sprague-Dawley
Design: regimen Daily Repeat, gender Male, age 6 weeks
Conditions: in vivo, po, 10 mg/kg, route gavage, dose level Middle; for APTT / Bas / Eos / Fbg / Hb / Ht / Lym / MCH / MCHC / MCV / Mono / Neu / PT / Plat / RBC / Ret / WBC: tissue Blood; for KIDNEY_L / KIDNEY_R / KIDNEY_TOTAL: tissue Kidney; for LIVER: tissue Liver; for A/G / ALP / ALT / AST / BUN / CRE / Ca / Cl / DBIL / GLC / IP / K / LDH / Na / PL / RALB / TBIL / TC / TG / TP / gamma-GTP: tissue Plasma

Work on `CN(C)CCC(c1ccc(Cl)cc1)c1ccccn1` (configuration not stated) [CHLORPHENIRAMINE] yielded a TERMINAL_BW (72 h, time 3 day) of 226.7 g, an APTT (72 h, time 3 day) of 18.1 s and a Bas (72 h, time 3 day) of 0%. It also gave an Eos (72 h, time 3 day) of 1.2%, a Fbg (72 h, time 3 day) of 297.4 mg/dL and a Hb (72 h, time 3 day) of 13.1 g/dL. The Ht (72 h, time 3 day) was 40.4%, the Lym (72 h, time 3 day) was 77.4% and the MCH (72 h, time 3 day) was 20.7 pg. For the same compound, the MCHC (72 h, time 3 day) was 32.3%, the MCV (72 h, time 3 day) was 63.9 fL and the Mono (72 h, time 3 day) was 2.6%. The Neu (72 h, time 3 day) was 18.6%, the PT (72 h, time 3 day) was 14.8 s and the Plat (72 h, time 3 day) was 123.1 x10_4/uL. For the same compound, the RBC (72 h, time 3 day) was 631.8 x10_4/ul, the Ret (72 h, time 3 day) was 6.1% and the WBC (72 h, time 3 day) was 88.3 x10_2/uL. It also gave a KIDNEY_L (72 h, time 3 day) of 1 g, a KIDNEY_R (72 h, time 3 day) of 0.9 g and a KIDNEY_TOTAL (72 h, time 3 day) of 1.9 g. It also gave an LIVER (72 h, time 3 day) of 10.2 g, an A/G (72 h, time 3 day) of 0.9 and an ALP (72 h, time 3 day) of 1653.8 IU/L. It also gave an ALT (72 h, time 3 day) of 38.8 IU/L, an AST (72 h, time 3 day) of 67.8 IU/L and a BUN (72 h, time 3 day) of 14.4 mg/dL. The CRE (72 h, time 3 day) was 0.2 mg/dL, the Ca (72 h, time 3 day) was 10.4 mg/dL and the Cl (72 h, time 3 day) was 107.2 meq/L. The DBIL (72 h, time 3 day) was 0.016 mg/dL, the GLC (72 h, time 3 day) was 184.6 mg/dL and the IP (72 h, time 3 day) was 7.4 mg/dL. For the same compound, the K (72 h, time 3 day) was 4.5 meq/L, the LDH (72 h, time 3 day) was 94.6 IU/L and the Na (72 h, time 3 day) was 141.6 meq/L. For the same compound, the PL (72 h, time 3 day) was 147.8 mg/dL, the RALB (72 h, time 3 day) was 2.6 g/dL and the TBIL (72 h, time 3 day) was 0.038 mg/dL. It also gave a TC (72 h, time 3 day) of 82 mg/dL, a TG (72 h, time 3 day) of 76.2 mg/dL and a TP (72 h, time 3 day) of 5.6 g/dL. For the same compound, the gamma-GTP (72 h, time 3 day) was 1.4 IU/L, the TERMINAL_BW ([…], time 7 day) was 266.4 g and the TERMINAL_BW ([…], time 14 day) was 329 g. For the same compound, the TERMINAL_BW ([…], time 28 day) was 411.3 g, the APTT ([…], time 7 day) was 22.1 s and the Bas ([…], time 7 day) was 0%. It also gave an Eos ([…], time 7 day) of 0.8%, a Fbg ([…], time 7 day) of 297.2 mg/dL and a Hb ([…], time 7 day) of 13.6 g/dL. It also gave a Ht ([…], time 7 day) of 41%, a Lym ([…], time 7 day) of 77% and an MCH ([…], time 7 day) of 20.8 pg. The MCHC ([…], time 7 day) was 33%, the MCV ([…], time 7 day) was 63.1 fL and the Mono ([…], time 7 day) was 2.2%. For the same compound, the Neu ([…], time 7 day) was 19.2%, the PT ([…], time 7 day) was 14.1 s and the Plat ([…], time 7 day) was 110 x10_4/uL. For the same compound, the RBC ([…], time 7 day) was 650.4 x10_4/ul, the Ret ([…], time 7 day) was 5.7% and the WBC ([…], time 7 day) was 82.7 x10_2/uL. It also gave an APTT ([…], time 14 day) of 16.1 s, a Bas ([…], time 14 day) of 0.2% and an Eos ([…], time 14 day) of 0.4%. The Fbg ([…], time 14 day) was 365 mg/dL, the Hb ([…], time 14 day) was 14 g/dL and the Ht ([…], time 14 day) was 42.2%. The Lym ([…], time 14 day) was 73.6%, the MCH ([…], time 14 day) was 20.3 pg and the MCHC ([…], time 14 day) was 33.1%. For the same compound, the MCV ([…], time 14 day) was 61.3 fL, the Mono ([…], time 14 day) was 3.4% and the Neu ([…], time 14 day) was 19.8%. The PT ([…], time 14 day) was 14.4 s, the Plat ([…], time 14 day) was 118 x10_4/uL and the RBC ([…], time 14 day) was 687.8 x10_4/ul. It also gave a Ret ([…], time 14 day) of 4.6%, a WBC ([…], time 14 day) of 91.1 x10_2/uL and an APTT ([…], time 28 day) of 18.2 s. It also gave a Bas ([…], time 28 day) of 0%, an Eos ([…], time 28 day) of 1% and a Fbg ([…], time 28 day) of 267.8 mg/dL. The Hb ([…], time 28 day) was 15.2 g/dL, the Ht ([…], time 28 day) was 45.1% and the Lym ([…], time 28 day) was 78.8%. The MCH ([…], time 28 day) was 18.9 pg, the MCHC ([…], time 28 day) was 33.8% and the MCV ([…], time 28 day) was 56 fL. The Mono ([…], time 28 day) was 2.2%, the Neu ([…], time 28 day) was 17.4% and the PT ([…], time 28 day) was 15.2 s. The Plat ([…], time 28 day) was 106.7 x10_4/uL, the RBC ([…], time 28 day) was 806.2 x10_4/ul and the Ret ([…], time 28 day) was 2.2%. For the same compound, the WBC ([…], time 28 day) was 92.2 x10_2/uL, the KIDNEY_L ([…], time 7 day) was 1.1 g and the KIDNEY_R ([…], time 7 day) was 1.1 g. The KIDNEY_TOTAL ([…], time 7 day) was 2.2 g, the KIDNEY_L ([…], time 14 day) was 1.3 g and the KIDNEY_R ([…], time 14 day) was 1.2 g. It also gave a KIDNEY_TOTAL ([…], time 14 day) of 2.5 g, a KIDNEY_L ([…], time 28 day) of 1.5 g and a KIDNEY_R ([…], time 28 day) of 1.4 g. It also gave a KIDNEY_TOTAL ([…], time 28 day) of 2.9 g, an LIVER ([…], time 7 day) of 12.1 g and an LIVER ([…], time 14 day) of 14.6 g. For the same compound, the LIVER ([…], time 28 day) was 16.2 g, the A/G ([…], time 7 day) was 0.8 and the ALP ([…], time 7 day) was 1451.2 IU/L. For the same compound, the ALT ([…], time 7 day) was 40.6 IU/L, the AST ([…], time 7 day) was 64.4 IU/L and the BUN ([…], time 7 day) was 15.8 mg/dL. The CRE ([…], time 7 day) was 0.2 mg/dL, the Ca ([…], time 7 day) was 11.4 mg/dL and the Cl ([…], time 7 day) was 105.8 meq/L. For the same compound, the DBIL ([…], time 7 day) was 0.012 mg/dL, the GLC ([…], time 7 day) was 194.4 mg/dL and the IP ([…], time 7 day) was 7.6 mg/dL. For the same compound, the K ([…], time 7 day) was 4.2 meq/L, the LDH ([…], time 7 day) was 96.6 IU/L and the Na ([…], time 7 day) was 142.6 meq/L. The PL ([…], time 7 day) was 158.4 mg/dL, the RALB ([…], time 7 day) was 2.6 g/dL and the TBIL ([…], time 7 day) was 0.028 mg/dL. The TC ([…], time 7 day) was 84.8 mg/dL, the TG ([…], time 7 day) was 98 mg/dL and the TP ([…], time 7 day) was 5.8 g/dL. For the same compound, the gamma-GTP ([…], time 7 day) was 1 IU/L, the A/G ([…], time 14 day) was 0.8 and the ALP ([…], time 14 day) was 1493.6 IU/L. The ALT ([…], time 14 day) was 41.6 IU/L, the AST ([…], time 14 day) was 64 IU/L and the BUN ([…], time 14 day) was 15.8 mg/dL. The CRE ([…], time 14 day) was 0.2 mg/dL, the Ca ([…], time 14 day) was 11.2 mg/dL and the Cl ([…], time 14 day) was 105.4 meq/L. For the same compound, the DBIL ([…], time 14 day) was 0.016 mg/dL, the GLC ([…], time 14 day) was 199.6 mg/dL and the IP ([…], time 14 day) was 7.8 mg/dL. For the same compound, the K ([…], time 14 day) was 4 meq/L, the LDH ([…], time 14 day) was 103 IU/L and the Na ([…], time 14 day) was 144 meq/L. For the same compound, the PL ([…], time 14 day) was 152.2 mg/dL, the RALB ([…], time 14 day) was 2.8 g/dL and the TBIL ([…], time 14 day) was 0.034 mg/dL. It also gave a TC ([…], time 14 day) of 78.2 mg/dL, a TG ([…], time 14 day) of 116.2 mg/dL and a TP ([…], time 14 day) of 6 g/dL. It also gave a gamma-GTP ([…], time 14 day) of 1 IU/L, an A/G ([…], time 28 day) of 0.8 and an ALP ([…], time 28 day) of 1476.8 IU/L. The ALT ([…], time 28 day) was 39 IU/L, the AST ([…], time 28 day) was 67 IU/L and the BUN ([…], time 28 day) was 16.8 mg/dL. It also gave a CRE ([…], time 28 day) of 0.2 mg/dL, a Ca ([…], time 28 day) of 10.5 mg/dL and a Cl ([…], time 28 day) of 107.2 meq/L. It also gave a DBIL ([…], time 28 day) of 0.016 mg/dL, a GLC ([…], time 28 day) of 193.4 mg/dL and an IP ([…], time 28 day) of 6.2 mg/dL. For the same compound, the K ([…], time 28 day) was 4.1 meq/L, the LDH ([…], time 28 day) was 87.2 IU/L and the Na ([…], time 28 day) was 144.2 meq/L. The PL ([…], time 28 day) was 141 mg/dL, the RALB ([…], time 28 day) was 2.7 g/dL and the TBIL ([…], time 28 day) was 0.03 mg/dL. For the same compound, the TC ([…], time 28 day) was 65.6 mg/dL, the TG ([…], time 28 day) was 136.6 mg/dL and the TP ([…], time 28 day) was 6 g/dL. It also gave a gamma-GTP ([…], time 28 day) of 1 IU/L.
